Data set [1] relates to REC-1 cell (MCL)-inoculated xenograft. The data set can be described thus: REC-1 cell subcutaneous xenograft tumor model. It is filed as in vivo. The settings on record: REC-1 xenograft, 100 mg/kg/day, 14 days.
Data set [2] in a line: drug enrichment in the tumor. The class given is in vivo, mouse. The settings on record: 100 mg/kg.
A further data set has as its system REC-1. The data set can be described thus: anti-proliferative CellTiter-Glo assay. The note with it: Homo sapiens, Rec1; REC-1, 72 h. It is filed as cell-based. As for the experimental part:
(§1) Cell viability was measured using the CellTiter–Glo assay (Promega, USA) according to the manufacturer’s instructions, and […] was measured in a Bio-red Microplate reader (Bio-Red, USA).
A general note: In ATP-based viability assays light output follows the ATP content of the culture.

A further data set deals with TMD8. Description: anti-proliferative CellTiter-Glo assay. The class given is cell-based. The note with it: Homo sapiens, TMD8, 72 h. As for the experimental part:
as §1

Data set [3] has as its system REC-1 cells bone marrow engraftment. The data set can be described thus: REC-1 cells bone marrow engrafted mouse model. The class given is in vivo. The note with it: REC-1 bone marrow engraftment, 100 mg/kg/day p.o. As for the experimental part:
Five-week old female NOD-SCID mice were purchased from the Beijing Vital River Laboratory Animal Technology Co., Ltd (Beijing, China). All animals were housed in a specific pathogen free facility and used according to the animal care regulations of Hefei Institutes of Physical Science, Chinese Academy of Sciences. NOD-SCID mice were induced by intraperitoneal injection of cyclophosphamide (CTX) 50 mg/kg daily for two days. 8 million REC-1 cells in 0.3 mL RPMI1640 medium were injected by intravenous after 24 h. […] Mice were monitored daily and were euthanized when moribund or at early signs of hind limb paralysis.

The subject of a further data set is SK-OV-3 cells. Description: NK-cell-mediated ADCC, LDH release cytotoxicity assay, Herceptin. The class given is cell-based, human. As for the experimental part: (§2) The cytotoxicity of NK cells was measured using the CyQUANT™ LDH Cytotoxicity Assay Kit (Invitrogen™, #C20300) according to the manufacturer’s instructions. Briefly, enriched NK cells (6 × 10^5 /ml) were cultured with the same volume of Mino cell and SK-OV-3 cell (1-2 × 10^4 /ml) in a 96-well plate for 4 h with Rituximab and Herceptin (10 μg/mL) and CHMFL-BTK-85 or PCI32765 at 37°C in a humidified CO2 incubator prior to removal of the supernatant for lactate dehydrogenase (LDH) release measurements. Calculate % Cytotoxicity by using the following formula: %Cytotoxicity = (Compound-treated LDH activity-Spontaneous LDH activity)/(Maximum LDH activity-Spontaneous LDH activity)*100.
A general note: LDH in the medium is a marker of cell lysis.

Another data set deals with Mino cells. The data set can be described thus: NK-cell-mediated ADCC, LDH release cytotoxicity assay, Rituximab. The class given is cell-based, human. The protocol:
as §2

A further data set deals with U2932. The data set can be described thus: anti-proliferative CellTiter-Glo assay. The class given is cell-based. The settings on record: Homo sapiens, U2932, 72 h. The protocol: as §1
For another data set, the system named is SU-DHL-6. Description: anti-proliferative CellTiter-Glo assay. The class given is cell-based. The settings on record: Homo sapiens, SU-DHL-6, 72 h. The protocol: as §1
For a further data set, the system named is Raji. The data set can be described thus: anti-proliferative CellTiter-Glo assay. The settings on record: Homo sapiens, 72 h. It is filed as cell-based. The protocol: as §1
A further data set has as its system Pfeiffer. Description: anti-proliferative CellTiter-Glo assay. The class given is cell-based. The note with it: Homo sapiens, 72 h. As for the experimental part: as §1
Another data set relates to Ramos. Description: anti-proliferative CellTiter-Glo assay. The class given is cell-based. The settings on record: Homo sapiens, 72 h. As for the experimental part:
as §1

In a further data set the test system is SU-DHL-2. The data set can be described thus: anti-proliferative CellTiter-Glo assay. It is filed as cell-based. The settings on record: Homo sapiens, SU-DHL-2, 72 h. As for the experimental part: as §1
The next data set has as its system WSU-DLCL2. The data set can be described thus: anti-proliferative CellTiter-Glo assay. The class given is cell-based. The note with it: Homo sapiens, WSUDLCL2; WSU-DLCL2, 72 h. As for the experimental part: as §1
Another data set deals with JEKO-1. The data set can be described thus: anti-proliferative CellTiter-Glo assay. The class given is cell-based. The note with it: Homo sapiens, JeKo-1, 72 h. As for the experimental part:
as §1

In another data set the test system is DOHH2. The data set can be described thus: anti-proliferative CellTiter-Glo assay. It is filed as cell-based. The settings on record: Homo sapiens, DOHH-2; DOHH2, 72 h. As for the experimental part:
as §1

For data set [4], the system named is TMD8 cell (DLBCL)-inoculated xenograft. The data set can be described thus: TMD8 cell subcutaneous xenograft tumor model. The class given is in vivo. The note with it: TMD8 xenograft, 100 mg/kg/day, 28 days.

In data set [1], `CC#CC(=O)N1CCC[C@H]1c1nc(-c2ccc(C(=O)Nc3ccccn3)cc2)c2c(N)nccn12` [Acalabrutinib] displayed a TGI of 58%. Moreover, the “concentration in the tumor” value in [2] worked out at 1300 nM. In addition, the GI50 in the data set on REC-1 worked out at 30 ± 2 nM; with TMD8, 20 ± 3 nM.
For the compound `C=CC(=O)N1CCC[C@@H](n2nc(-c3ccc(Oc4ccccc4)cc3)c3c(N)ncnc32)C1` [Ibrutinib, reference compound], the TGI in data set [1] worked out at 59%; in [4], 90%. This compound yielded a median survival time in data set [3] of 39 days. Moreover, the “effect on antibody-dependent NK-cell-mediated cytotoxicity (ADCC)” value in the data set with SK-OV-3 cells and in the data set with Mino cells was “significantly impaired” each time. Also, the “concentration in the tumor” value in data set [2] was determined as 1230 nM. In addition, the GI50 in the data set with U2932 is 1400 ± 1200 nM; with SU-DHL-6, 370 ± 55 nM; with Raji, 6100 ± 1800 nM; in the data set on REC-1 it was 30 ± 21 nM; in the data set with Pfeiffer, 1200 ± 120 nM; in the data set with TMD8, 1 ± 0.1 nM. In addition, the GI50 in the data set with Ramos was determined as 3800 ± 660 nM; in the data set with SU-DHL-2 it was 4900 ± 200 nM; in the data set with WSU-DLCL2 it was 180 ± 100 nM; in the data set on JEKO-1 it was 2000 ± 150 nM; with DOHH2, 260 ± 180 nM.

In general, TGI refers to the reduction of tumour growth relative to the control group. A high value points to a stronger effect on the tumour. What is called GI50 is the concentration at which growth is held to half of that of the control. Lower therefore signals more potent growth inhibition.

Source of the values: paper PMC7490411 (Signal Transduction and Targeted Therapy, 2020).
